Consider 16 molecules from patent publication US11453689B2, “3-pyrrolidine-indole derivatives as serotonergic psychedelic agents for the treatment of CNS disorders” (Mindset Pharma Inc., priority 2020, dated 2022).

Structures are written as SMILES. Read-outs that look alike come from different tables or passages of the source.

The target of data set [1] is human 5-HT2A (h5-HT2A) receptor (Homo sapiens (Human), UniProt P28223). In words: FLIPR calcium assay, human 5-HT2A receptor, agonist mode. It counts as cell-based. How it is done:
I. Assessment of the Activated Effect of Exemplary Compounds of Formula I Targeting on Human 5-HT2A (h5-HT2A) Receptor Under Agonist Mode:
1. Culture the cells in cell culture medium (DMEM containing 10% FBS, 1× penicillin-streptomycin 300 μg/ml G418 and 100 μg/ml hygromycin B) at 37° C., 5% (v/v) CO2.
2. One day before the assays, detach the cell using TrypLE™ Express and count cells using cell counter.
3. Seed 20000 cells/well in 30 μl/well culture medium to a 384-well cell plate and incubate the cells overnight at 37° C., 5% (v/v) CO2.
4. On the assay day, prepare 2×dye solution following the manual of the FLIPR® Calcium 6 Assay Kit: i. Dilute the dye with assay buffer(20 mM HEPES in 1× HBSS, PH7.4); ii. Add probenecid to the final concentration of 5 mM; iii. Vortex vigorously for 1-2 minutes.
5. Medium from cell plate by flicking the cell plate on towel papers.
6. Add 10 μl of assay buffer and 10 μl of 2×dye solution to each well of the cell plate.
7. Put the cell plate on plate shaker, agitate the plate at 600 rpm for 2 minutes. Incubate the plate at 37° C. for 2 hours followed by additional 15-minute incubation at 25° C.
8. Prepare 3×compound in assay buffer: a. Dilute reference compounds to required concentration with DMSO. Add the compounds to a 384-well compound plate; b. Perform serial dilutions; c. Add 10 mM test compounds to the compound plate, perform 3-fold serial dilutions. d. […] Add 20 μl/well assay buffer to the compound plate; f. Mix the plate on plate shaker for 2 mins;
i. The normalized fluorescence reading (RFU) is calculated as shown follow, while Fmax and Fmin stand for maximum and minimum of calcium signal during defined time window: RFU=Fmax−Fmin
ii. Calculate the percentage activation by using following equation: […]
iii. Calculate EC50 by fitting % activation against log of compound concentrations with Hill equation using XLfit.

Data set [2] can be described thus: Human liver microsomes stability with NADPH. Conditions: for Remaining Percentage (%) after 60 min, Human: human liver microsomes, with NADPH, 2 μM; for half-life at 2 μM / microsomal CLint at 2 μM: human, microsomes. How it is done: (§1) The objective of this study was to estimate in vitro metabolic stability of exemplary compounds in pooled human, male rat and male mouse liver microsomes. The concentrations of exemplary compounds in reaction systems were evaluated by LC-MS/MS for estimating the stability in pooled human, male rat and male mouse liver microsomes. The in vitro intrinsic clearances of test compounds were determined as well.
(§2) A master solution in the “Incubation Plate” containing phosphate buffer, ultra-pure H2O, MgCl2 solution and liver microsomes was made according to Table 3. The mixture was pre-warmed at 37° C. water bath for 5 minutes.
(§3) 40 μL of 10 mM NADPH solution was added to each well. The final concentration of NADPH was 1 mM. The negative control samples were prepared by replacing NADPH with 40 μL of ultra-pure H2O. Samples were prepared in duplicate. Negative controls were prepared in singlet.
(§4) The reaction was started with the addition of 4 μL of 200 μM exemplary test compounds or control compounds to each master solution to get the final concentration of 2 μM. This study was performed in duplicate.
(§5) Aliquots of 50 μL were taken from the reaction solution at 0, 15, 30, 45 and 60 minutes. The reaction solutions were stopped by the addition of 4 volumes of cold methanol with IS (100 nM alprazolam, 200 nM imipramine, 200 nM labetalol and 2 μM ketoprofen). Samples were centrifuged at 3,220 g for 40 minutes. Aliquot of 90 μL of the supernatant was mixed with 90 μL of ultra-pure H2O and then was used for LC-MS/MS analysis.
(§6) LC/MS analysis was performed for all samples from this study using a Shimadzu liquid chromatograph separation system equipped with degasser DGU-20A5R; solvent delivery unit LC-30AD; system controller SIL-30AC; column oven CTO-30A; CTC Analytics HTC PAL System. Mass spectrometric analysis was performed using an Triple Quad™ 5500 instrument.
(§7) All calculations were carried out using Microsoft Excel. Peak areas were determined from extracted ion chromatograms. The slope value, k, was determined by linear regression of the natural logarithm of the remaining percentage of the parent drug vs. incubation time curve.
(§8) Conversion of the in vitro t1/2 (min) into the in vitro intrinsic clearance (in vitro CLint, in μL/min/mg proteins) was done using the following equation (mean of duplicate determinations): […]

Data set [3] is described as follows: Mouse liver microsomes stability with NADPH. Particulars: for half-life at 2 μM / microsomal CLint at 2 μM: male, mouse, microsomes; for Remaining Percentage (%) after 60 min, Mouse: mouse liver microsomes, with NADPH, 2 μM. As to the method: as §1, §2, §3, §4, §5, §6, §7, §8
Data set [4] is described as follows: Rat liver microsomes stability with NADPH. Conditions: for half-life at 2 μM / microsomal CLint at 2 μM: male, rat, microsomes; for Remaining Percentage (%) after 60 min, Rat: rat liver microsomes, with NADPH, 2 μM. As to the method:
as §1, §2, §3, §4, §5, §6, §7, §8

Data set [5] addresses human 5-HT2A receptor (Homo sapiens (Human), UniProt P28223). In words: Radioligand ([3H]-ketanserin) binding assay on human 5-HT2A receptor. As to the method: i. Prepare the assay buffer following the table below;
ii. Preparation of 8 doses of reference and exemplary test compounds starting from 10 mM stock solution as requested by 5-fold serial dilutions with 100%;
iii. […] a. Add 50 μl/well of 0.5% (v/v) PEI to UniFilter-96 GF/B plates. Seal the plates and incubate at 4° C. for 3 hrs; b. After incubation, wash the plates 3 times with ice-cold wash buffer (50 mM Tris, pH7.4);
iv. Preparation of assay plates: a. Dilute cell membrane with assay buffer and add 330 μl/well to 96 round deep well plates to reach a concentration of 20 μg/well; b. Prepare 8 concentrations of reference or exemplary test compounds and add 110 μl/well to 96 round deep well plates; c. Dilute [3H]-ketanserin with assay buffer to 5 nM (5× final concentration) and add 110 μl/well to 96 round deep well plates.
v. Centrifuge the plate at 1000 rpm for 30 secs and then agitate at 600 rpm, R.T. for 5 min.
vi. Seal the plates and incubate the plate at 27° C. for 90 min.
vii. Stop the incubation by vacuum filtration onto GF/B filter plates followed by 4 times washing with ice-cold wash buffer (50 mM Tris, pH7.4).
ix. Seal the filter plates and add 40 μl/well of scintillation cocktail.
x. Read the plate by using a Microbeta2 microplate counter.
For reference and exemplary test compounds, the results are expressed as % Inhibition, using the normalization equation: N=100−100×(U−C2)/(C1−C2), where U is the unknown value, C1 is the average of high controls, and C2 is the average of low controls. The IC50 is determined by fitting percentage of inhibition as a function of compound concentrations with Hill equation using XLfit.

For `Oc1cccc2[nH]cc(C[C@H]3CCCN3)c12` [Compound I-3, (R)-3-(pyrrolidin-2-ylmethyl)-1H-indol-4-ol], the EC50 in data set [1] is less than 1 µM.

Turning to `[2H]C([2H])(c1c[nH]c2cccc(F)c12)[C@H]1CCCN1C([2H])([2H])[2H]` [Compound I-37, (R)-4-fluoro-3-((1-(methyl-d3)pyrrolidin-2-yl)methyl-d2)-1H-indole], in data set [2], the “Remaining Percentage (%) after 60 min, Human” value is on record as 31.93%; the half-life at 2 μM came out at 36.4 min; the microsomal CLint at 2 μM turned out to be 38.1 µL/min/mg. Besides, in data set [3], the half-life at 2 μM turned out to be 53.7 min; the intrinsic clearance (microsomal CLint) at 2 μM was found to be 25.8 µL/min/mg; the “Remaining Percentage (%) after 60 min, Mouse” value was 46.10%. For the same molecule, the EC50 in data set [1] was less than 1 µM. In data set [4], the half-life at 2 μM stood at 29.8 min; the microsomal CLint at 2 μM was 46.5 µL/min/mg; the “Remaining Percentage (%) after 60 min, Rat” value came to 24.82%. Also, the half-maximal inhibitory concentration (IC50) in data set [5] lay in the range of 0.5 to 5 µM.

On to `[2H]C([2H])(c1c[nH]c2cccc(Cl)c12)[C@H]1CCCN1C([2H])([2H])[2H]` [Compound I-38, (R)-4-chloro-3-((1-(methyl-d3)pyrrolidin-2-yl)methyl-d2)-1H-indole], for which, in data set [1], the concentration giving a half-maximal response (EC50) was more than 10 µM. This molecule also showed a concentration for half-maximal inhibition (IC50) in data set [5] of less than 0.5 µM.

Turning to `[2H]C([2H])([2H])N1CCC[C@@H]1Cc1c[nH]c2cccc(F)c12` [Compound I-40, (R)-4-fluoro-3-((1-(methyl-d3)pyrrolidin-2-yl)methyl)-1H-indole], in data set [2], the “Remaining Percentage (%) after 60 min, Human” value is given as 35.69%; the half-life at 2 μM was 40.4 min; the intrinsic metabolic clearance (microsomal CLint) at 2 μM stood at 34.5 µL/min/mg. In addition, in data set [3], the half-life at 2 μM was found to be 63 min; the microsomal CLint at 2 μM is 22 µL/min/mg; the “Remaining Percentage (%) after 60 min, Mouse” value is reported as 51.70%. Moreover, the EC50 in data set [1] was less than 1 µM. Moreover, in data set [4], the half-life at 2 μM worked out at 54.3 min; the microsomal CLint at 2 μM worked out at 25.5 µL/min/mg; the “Remaining Percentage (%) after 60 min, Rat” value worked out at 46.51%. This molecule also displayed an IC50 in data set [5] of less than 0.5 µM.

In the case of `[2H]C([2H])(c1c[nH]c2cccc(F)c12)[C@H]1CCCN1` [Compound I-41, (R)-4-fluoro-3-(pyrrolidin-2-ylmethyl-d2)-1H-indole], the concentration for a half-maximal effect (EC50) in data set [1] was in the range of 1 to 10 µM. This molecule also gave a concentration for half-maximal inhibition (IC50) in data set [5] of 0.5 to 5 µM.

For the molecule `[2H]C([2H])(c1c[nH]c2cccc(F)c12)[C@@H]1CCCN1C([2H])([2H])[2H]` [Compound I-42, (S)-4-fluoro-3-((1-(methyl-d3)pyrrolidin-2-yl)methyl-d2)-1H-indole], the EC50 in data set [1] is more than 10 µM. The IC50 in data set [5] was more than 5 µM.

`[2H]C([2H])(c1c[nH]c2cccc(OCc3ccccc3)c12)[C@H]1CCCN1C([2H])([2H])[2H]` [Compound I-43, (R)-4-(benzyloxy)-3-((1-(methyl-d3)pyrrolidin-2-yl)methyl-d2)-1H-indole]: the EC50 in data set [1] was more than 10 µM.

As for `[2H]C([2H])([2H])N1CCC[C@@H]1Cc1c[nH]c2cccc(OCc3ccccc3)c12` [Compound I-45, (R)-4-(benzyloxy)-3-((1-(methyl-d3)pyrrolidin-2-yl)methyl)-1H-indole], the half-maximal effective concentration (EC50) in data set [1] is more than 10 µM.

`CN1CCC[C@@H]1Cc1c[nH]c2cccc(OCc3ccccc3)c12` [Compound I-46, (R)-4-(benzyloxy)-3-((1-methylpyrrolidin-2-yl)methyl)-1H-indole]: the 50% effective concentration (EC50) in data set [1] was more than 10 µM.

As to `CN1CCC[C@@H]1Cc1c[nH]c2cccc(O)c12` [Compound I-47, (R)-3-((1-methylpyrrolidin-2-yl)methyl)-1H-indol-4-ol], the EC50 in data set [1] is less than 1 µM.

Regarding `[2H]C([2H])([2H])N1CCC[C@@H]1Cc1c[nH]c2cccc(OC(=O)CCCCCCC/C=C\C/C=C\CCCCC)c12` [Compound I-48, 3-(((R)-1-(methyl-d3)pyrrolidin-2-yl)methyl)-1H-indol-4-yl (9Z,12Z)-octadeca-9,12-dienoate], in data set [2], the “Remaining Percentage (%) after 60 min, Human” value is 34.38%; the half-life at 2 μM worked out at 73.4 min; the microsomal CLint at 2 μM stood at 18.9 µL/min/mg. Moreover, in data set [3], the half-life at 2 μM worked out at 17.3 min; the intrinsic metabolic clearance (microsomal CLint) at 2 μM is 80 µL/min/mg; the “Remaining Percentage (%) after 60 min, Mouse” value was determined as 9.06%. Besides, the EC50 in data set [1] (read-out: h5-HT2A EC50, FLIPR, agonist mode) lay within 1 to 10 µM. For the same molecule, in data set [4], the half-life at 2 μM is 38.9 min; the intrinsic clearance (microsomal CLint) at 2 μM worked out at 35.6 µL/min/mg; the “Remaining Percentage (%) after 60 min, Rat” value came to 41.86%. In addition, in data set [5] (read-out: h5-HT2A IC50, [3H]-ketanserin competition binding), the IC50 is less than 0.5 µM.

For the molecule `[2H]C([2H])(c1c[nH]c2cccc(O)c12)[C@@H]1CCCN1` [Compound I-51, (S)-3-(pyrrolidin-2-ylmethyl-d2)-1H-indol-4-ol], in data set [1], the 50% effective concentration (EC50) is less than 1 µM.

On to `[2H]C([2H])([2H])N1CCC[C@H]1Cc1c[nH]c2cccc(OCc3ccccc3)c12` [Compound I-52, (S)-4-(benzyloxy)-3-((1-(methyl-d3)pyrrolidin-2-yl)methyl)-1H-indole], for which, in data set [1], the EC50 is more than 10 µM.

On to `[2H]C([2H])([2H])N1CCC[C@H]1Cc1c[nH]c2cccc(O)c12` [Compound I-53, (S)-3-((1-(methyl-d3)pyrrolidin-2-yl)methyl)-1H-indol-4-ol], for which the 50% effective concentration (EC50) in data set [1] was 1 to 10 µM. In data set [5], this molecule had an IC50 of more than 5 µM.

Consider `[2H]C([2H])(c1c[nH]c2cccc(OP(=O)(O)O)c12)[C@H]1CCCN1C([2H])([2H])[2H]` [Compound I-54, (R)-3-((1-(methyl-d3)pyrrolidin-2-yl)methyl-d2)-1H-indol-4-yl dihydrogen phosphate], for which the 50% effective concentration (EC50) in data set [1] fell in the range of 1 to 10 µM.

`CN(C)CCc1c[nH]c2cccc(O)c12` [Psilocin, 4-hydroxy-N,N-dimethyltryptamine, reference compound]: the “Remaining Percentage (%) after 60 min, Human” value in data set [2] amounted to 70.16%. Moreover, the “Remaining Percentage (%) after 60 min, Mouse” value in data set [3] is recorded as 96.89%. Besides, in data set [4], the “Remaining Percentage (%) after 60 min, Rat” value is on record as 62.68%.
